Laboratory results reported in patent publication US9335332B2, “Nicotinamide phosphoribosyltransferase (NMPRTase) inhibitor for glioma therapy” (COUNCIL OF SCIENTIFIC AND INDUSTRIAL RESEARCH, priority 2010, dated 2016).

What was measured:
NMPRTase [1] = biological target: T1, NMPRTase (Homo sapiens, UniProt P43490); conditions: reference compounds, Table 1A; cited from earlier work
T1 construct: To prepare cytoplasmic extract, as source of NMPRTase, logarithmically growing U87 glioblastoma cells were collected; endogenous in cells; host or cells: U87 glioblastoma cells (cytoplasmic extract)
T1 sequence (P43490 whole entry): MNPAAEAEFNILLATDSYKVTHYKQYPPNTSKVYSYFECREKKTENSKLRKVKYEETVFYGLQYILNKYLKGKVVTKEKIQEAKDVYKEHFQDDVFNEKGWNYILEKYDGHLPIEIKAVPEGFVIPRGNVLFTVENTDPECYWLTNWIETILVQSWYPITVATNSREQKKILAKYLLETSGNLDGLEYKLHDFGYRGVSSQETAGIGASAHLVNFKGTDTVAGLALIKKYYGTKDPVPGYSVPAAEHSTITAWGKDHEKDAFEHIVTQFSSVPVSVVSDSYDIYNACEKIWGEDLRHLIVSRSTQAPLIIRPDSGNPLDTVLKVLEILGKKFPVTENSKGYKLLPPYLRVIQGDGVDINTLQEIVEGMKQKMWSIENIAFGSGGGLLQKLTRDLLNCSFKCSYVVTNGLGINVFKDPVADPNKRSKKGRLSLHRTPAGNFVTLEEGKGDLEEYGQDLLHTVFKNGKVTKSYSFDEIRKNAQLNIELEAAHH

NMPRTase [2] = biological target: T1, NMPRTase; test: NMPRTase assay: conversion of 14[C]-nicotinamide to 14[C]-NAD by U87 cell extract; assay type: biochemical; conditions: 14[C]-NAD formed, FIG. 2C, 3A and 3B
Experimental: In accordance with the inventive steps, the measurement of NMPRTase activity was carried. To prepare cytoplasmic extract, as source of NMPRTase, logarithmically growing U87 glioblastoma cells were collected by centrifugation and washed three times with Ca^2+, Mg^2+ free PBS. The cells pellet (2 to 3×10^7 cells) was suspended and lysed in 1 mL of 0.01 M NaH2PO4 (pH 7.4) by one round of freezing and slow thawing. The clear supernatant was recovered on ice after centrifugation at 23,000×g at 0° C. for 90 mins. […] of 1% protamine sulfate were added per ml of supernatant and incubated for 15 min on ice, followed by centrifugation at 23,000×g at 0° C. for 30 mins. The final supernatant was stored in small aliquots at −80° C. The NMPRTase activity was determined in 0.5 ml of reaction solution consisting of 5 mM MgCl2, 2 mM ATP, 0.5 mM phosphoribosyl PPI (pyrophosphate), 0.1 mM 14[C]-nicotinamide (specific activity: 50 mCi/mmol; American Radiolabeled Chemicals, Inc.) and 50 mM Tris (pH 8.8) at 37° C. […] The precipitate was removed by centrifugation at 2500×g at 4° C. for 10 min and the supernatant was stored at −20° C. The 14[C]-labeled components in the cell extracts were separated and identified using thin-layer chromatography (cellulose/1 M ammonium sulphate:ethanol (3:7). The chromatograms were run and exposed to imaging plates (Fuji) read using Phosphoimger (Fuji) the 14[C]-labeled NAD was quantified using Alpha Innotec software.
In accordance with the inventive steps, selected compounds were tested for inhibition of NMPRTase activity. Measurement of the ability of NMPRTase to convert 14[C]-nicotinamide to 14[C]-NAD was carried out. Most of the glioblastoma tissues have elevated levels of transcript and protein of PBEF1/NMPRTase. To prepare NMPRTase enzyme, firstly a panel of glioma derived cell lines was tested for NMPRTase transcript and protein levels.

[3] = system: glioma derived cell line U87; test: MTT viability assay, U87 cells; assay type: cell-based; conditions: Homo sapiens, U-87 MG, MTT at 48 hrs after addition of compounds
Experimental: Viability was measured by MTT assay at 48 hrs after addition of indicated compounds to U87 cells. The assays were carried out in triplicates and the mean value for each time point was used to generate the graph.
In accordance with the inventive steps, MTT assay was performed (Das, S.; El-Deiry, W. S.; Somasundaram, K. Efficient growth inhibition of HPV 16 E6-expressing cells by an adenovirus-expressing p53 homologue p73beta. Oncogene 2003, 22, 8394-402). A total of 1.5×10^3 cells/well were plated in a 96-well plate. After 24 h of plating, the cells were treated with indicated amounts of compounds. A measure of 20 μL (5 mg/mL) of MTT was added to each well 48 hrs after the addition of the compounds. MTT is a tetrazolium salt that is converted by living cells into purple formazan crystals. The medium was removed from the wells 3 hrs after MTT addition and 200 μL of DMSO (Dimethyl sulfoxide) was added to dissolve the formazan crystals, and then the absorbance was measured at 550 nm in an ELISA reader.
In accordance with the inventive steps, to correlate the NMPRTase inhibition property with cell growth inhibition, the ability of these compounds to inhibit the growth of a glioma derived cell line U87 was tested, which has elevated levels of PBEF1.

In the case of `O=C(/C=C/c1cccnc1)NCCCCC1CCN(C(=O)c2ccccc2)CC1` [FK866, reference compound], the “Biochemical energy of binding” value (NMPRTase [1]) is given as -9.25 kcal/mol, the “Inhibition of NMPRTase activity” value (NMPRTase [2]) is given as “inhibited efficiently” and the IC50 [3] is given as 170 µM.

In the case of `O=C1c2cc(S(=O)(=O)[O-])ccc2-c2ccc(S(=O)(=O)[O-])cc21.[K+].[K+]` [Compound 1, Dipotassium 9-oxo-9H-fluorene-2,7-disulfonate], the “Inhibition of NMPRTase activity” value (NMPRTase [2]) is reported as “did not inhibit NMPRTase activity” and the IC50 [3] is reported as 335 µM.

In the case of `Cc1nn(-c2ccccc2)nc1CNC(=O)C1=Cc2ccccc2OC1` [Compound 6, N-[(5-methyl-2-phenyl-2H-1,2,3-triazol-4-yl)methyl]-2H-chromene-3-carboxamide], the IC50 [3] is reported as over 500 µM.

Compound `NC(=O)c1cccnc1` [Nicotinamide] has an IC50 [3] of over 500 µM.

`CC(=O)c1cc(-n2nc3ccccc3n2)c(O)c(-n2nc3ccccc3n2)c1O` [Compound 3, 1,[3,5-Di(2H-1,2,3-benzotriazol-2-yl)-2,4-dihydroxyphenyl]ethan-1-one] showed an IC50 [3] of over 500 µM.

With `O=C(O)c1cccnc1` [Niacin, reference compound] the IC50 [3] was over 500 µM.

For `Nc1c(-c2ccc3ccccc3n2)c2ccc([N+](=O)[O-])cc2c(=O)n1Cc1ccccc1` [Compound 5, 3-amino-2-benzyl-7-nitro-4-(2-quinolyl)-1,2-dihydroisoquinolin-1-one], the “Inhibition of NMPRTase activity” value (NMPRTase [2]) was “inhibited NMPRTase activity” and the IC50 [3] was 325 µM.

With `CC12OC(c3ccccc3)=CC(c3ccccc3)=C1C(c1ccccc1)=CC2=O` (centres unmarked) [Compound 4, 7a-methyl-2,4,5-triphenyl-7,7a-dihydrocyclopenta[b]pyran-7-one] the “Inhibition of NMPRTase activity” value (NMPRTase [2]) was “inhibited NMPRTase activity” and the IC50 [3] was over 500 µM.

Compound `CCOC(=O)c1nn(-c2ccccc2)c(=O)c2c(N)c(C#N)c(-c3ccco3)cc12` [Compound 2, Ethyl-5-amino-6-cyano-7-(2-furyl)-4-oxo-3-phenyl-3,4-dihydro-1-phthalazinecarboxylate] has an IC50 [3] of over 500 µM.
